According to PubChem BioAssay (NCI):
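Here, GI50 denotes the concentration required for 50% inhibition of growth. TGI: concentration producing complete growth inhibition.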

Key:
Test in all cases: NCI tumour cell line growth inhibition, 384-well format
786-0 renal = system: 786-0 renal
A498 renal = system: A498 renal
ACHN renal = system: ACHN renal
CCRF-CEM leukemia = system: CCRF-CEM leukemia
COLO 205 colon = system: COLO 205 colon
DU-145 prostate = system: DU-145 prostate
HCC-2998 colon = system: HCC-2998 colon
HCT-15 colon = system: HCT-15 colon
HL-60(TB) leukemia = system: HL-60(TB) leukemia
HOP-62 NSCLC = system: HOP-62 NSCLC
HOP-92 NSCLC = system: HOP-92 NSCLC
HS 578T breast = system: HS 578T breast
HT29 colon = system: HT29 colon
IGROV1 ovarian = system: IGROV1 ovarian
KM12 colon = system: KM12 colon
LOX IMVI melanoma = system: LOX IMVI melanoma
M14 melanoma = system: M14 melanoma
MALME-3M melanoma = system: MALME-3M melanoma
MCF7 breast = system: MCF7 breast
MDA-MB-468 breast = system: MDA-MB-468 breast
MOLT-4 leukemia = system: MOLT-4 leukemia
NCI-H226 lung = system: NCI-H226 lung
NCI-H23 lung = system: NCI-H23 lung
NCI-H460 NSCLC = system: NCI-H460 NSCLC
NCI-H522 lung = system: NCI-H522 lung
NCI/ADR-RES ovarian = system: NCI/ADR-RES ovarian
OVCAR-3 ovarian = system: OVCAR-3 ovarian
OVCAR-4 ovarian = system: OVCAR-4 ovarian
OVCAR-5 ovarian = system: OVCAR-5 ovarian
PC-3 prostate = system: PC-3 prostate
RPMI-8226 leukemia = system: RPMI-8226 leukemia
RXF 393 renal = system: RXF 393 renal
SF-295 CNS = system: SF-295 CNS
SF-539 CNS = system: SF-539 CNS
SK-MEL-2 melanoma = system: SK-MEL-2 melanoma
SK-MEL-5 melanoma = system: SK-MEL-5 melanoma
SK-OV-3 ovarian = system: SK-OV-3 ovarian
SN12C renal = system: SN12C renal
SNB-19 CNS = system: SNB-19 CNS
SNB-75 CNS = system: SNB-75 CNS
SR leukemia = system: SR leukemia
SW-620 colon = system: SW-620 colon
T-47D breast = system: T-47D breast
TK-10 renal = system: TK-10 renal
U251 glioblastoma = system: U251 glioblastoma
UACC-62 melanoma = system: UACC-62 melanoma
UO-31 renal = system: UO-31 renal

`c1ccc2c(NCCCN3CCN(CCCNc4c5ccccc5nc5ccccc45)CC3)c3ccccc3nc2c1` showed a GI50 (786-0 renal) of 204 nM, a TGI (786-0 renal) of 1470 nM and a GI50 (A498 renal) of 504 nM. It also gave a TGI (A498 renal) of 2050 nM, a GI50 (ACHN renal) of 345 nM and a TGI (ACHN renal) of 2240 nM. It also gave a GI50 (CCRF-CEM leukemia) of 118 nM, a TGI (CCRF-CEM leukemia) of 551 nM and a GI50 (COLO 205 colon) of 1280 nM. It also gave a TGI (COLO 205 colon) of 3060 nM, a GI50 (DU-145 prostate) of 683 nM and a TGI (DU-145 prostate) of 3490 nM. The GI50 (HCC-2998 colon) was 391 nM, the TGI (HCC-2998 colon) was 1510 nM and the GI50 (HCT-15 colon) was 2580 nM. For the same compound, the TGI (HCT-15 colon) was 8970 nM, the GI50 (HL-60(TB) leukemia) was 108 nM and the TGI (HL-60(TB) leukemia) was 243 nM. The GI50 (HOP-62 NSCLC) was 96.4 nM, the TGI (HOP-62 NSCLC) was 463 nM and the GI50 (HOP-92 NSCLC) was 425 nM. The TGI (HOP-92 NSCLC) was 2450 nM, the GI50 (HS 578T breast) was 174 nM and the TGI (HS 578T breast) was 1170 nM. The GI50 (HT29 colon) was 339 nM, the TGI (HT29 colon) was 1530 nM and the GI50 (IGROV1 ovarian) was 228 nM. The TGI (IGROV1 ovarian) was 1430 nM, the GI50 (KM12 colon) was 539 nM and the TGI (KM12 colon) was 2260 nM. For the same compound, the GI50 (LOX IMVI melanoma) was 665 nM, the TGI (LOX IMVI melanoma) was 1860 nM and the GI50 (M14 melanoma) was 1320 nM. The TGI (M14 melanoma) was 2630 nM, the GI50 (MALME-3M melanoma) was 702 nM and the TGI (MALME-3M melanoma) was 1880 nM. For the same compound, the GI50 (MCF7 breast) was 208 nM, the TGI (MCF7 breast) was 909 nM and the GI50 (MDA-MB-468 breast) was 305 nM. It also gave a TGI (MDA-MB-468 breast) of 670 nM, a GI50 (MOLT-4 leukemia) of 23.2 nM and a TGI (MOLT-4 leukemia) of 50.9 nM. The GI50 (NCI-H226 lung) was 161 nM, the TGI (NCI-H226 lung) was 1190 nM and the GI50 (NCI-H23 lung) was 327 nM. For the same compound, the TGI (NCI-H23 lung) was 1340 nM, the GI50 (NCI-H460 NSCLC) was 170 nM and the TGI (NCI-H460 NSCLC) was 384 nM. The GI50 (NCI-H522 lung) was 64.7 nM, the TGI (NCI-H522 lung) was 260 nM and the GI50 (NCI/ADR-RES ovarian) was 5280 nM. For the same compound, the TGI (NCI/ADR-RES ovarian) was greater than 100000 nM, the GI50 (OVCAR-3 ovarian) was 651 nM and the TGI (OVCAR-3 ovarian) was 2120 nM. For the same compound, the GI50 (OVCAR-4 ovarian) was 446 nM, the TGI (OVCAR-4 ovarian) was 1220 nM and the GI50 (OVCAR-5 ovarian) was 378 nM. For the same compound, the TGI (OVCAR-5 ovarian) was 2460 nM, the GI50 (PC-3 prostate) was 1390 nM and the TGI (PC-3 prostate) was 3750 nM. For the same compound, the GI50 (RPMI-8226 leukemia) was 134 nM, the TGI (RPMI-8226 leukemia) was 291 nM and the GI50 (RXF 393 renal) was 421 nM. For the same compound, the TGI (RXF 393 renal) was 1460 nM, the GI50 (SF-295 CNS) was 1030 nM and the TGI (SF-295 CNS) was 3490 nM. It also gave a GI50 (SF-539 CNS) of 159 nM, a TGI (SF-539 CNS) of 1230 nM and a GI50 (SK-MEL-2 melanoma) of 261 nM. For the same compound, the TGI (SK-MEL-2 melanoma) was 434 nM, the GI50 (SK-MEL-5 melanoma) was 1010 nM and the TGI (SK-MEL-5 melanoma) was 2240 nM. It also gave a GI50 (SK-OV-3 ovarian) of 458 nM, a TGI (SK-OV-3 ovarian) of 2450 nM and a GI50 (SN12C renal) of 81.6 nM. It also gave a TGI (SN12C renal) of 348 nM, a GI50 (SNB-19 CNS) of 433 nM and a TGI (SNB-19 CNS) of 6930 nM. The GI50 (SNB-75 CNS) was 361 nM, the TGI (SNB-75 CNS) was 1410 nM and the GI50 (SR leukemia) was 155 nM. For the same compound, the TGI (SR leukemia) was 328 nM, the GI50 (SW-620 colon) was 452 nM and the TGI (SW-620 colon) was 2350 nM. It also gave a GI50 (T-47D breast) of 1100 nM, a TGI (T-47D breast) of 3610 nM and a GI50 (TK-10 renal) of 605 nM. The TGI (TK-10 renal) was 3160 nM, the GI50 (U251 glioblastoma) was 223 nM and the TGI (U251 glioblastoma) was 766 nM. The GI50 (UACC-62 melanoma) was 336 nM, the TGI (UACC-62 melanoma) was 1150 nM and the GI50 (UO-31 renal) was 1780 nM. The TGI (UO-31 renal) was 4050 nM.
